Six compounds from US10398689B2, “Benzopiperidine derivative, preparation method thereof and medical use thereof” (Jiangsu Hengrui Medicine Co., Ltd., priority 2015, dated 2019) can be followed below.

What is called AUC is the area under the concentration-time curve, a measure of exposure. What is called MRT is a mean duration of stay, worked out from the concentration-time curve. For orientation: Cmax means the highest concentration seen after dosing. In general, IC50 refers to the concentration that gives 50% inhibition.

A short description of series [1]: Pharmacokinetics assay in BALB/C nude mice after intragastrical administration. The settings on record: female, mouse, po, 3 mg/kg, plasma; for Vd/F: read-out: Apparent Distribution Volume Vz/F; for AUC: read-out: Area Under Curve AUC; for CL/F: read-out: Clearance CL/F; for half-life: read-out: Half-Life t1/2 (converted); for MRT: read-out: Mean Residence Time MRT; for Cmax: read-out: Plasma Conc. Cmax. In kind it is in vivo. Here is the method: BALB/C nude mice were used as test animals. The drug concentration in plasma at different time points was determined by LC/MS/MS after intragastrical administration of the compounds of Examples 1, 7, 8, 10, 11, 14, 16, 39 and 42 to BALB/C nude mice. The pharmacokinetic behavior of the compounds of the compounds of the present invention was studied and evaluated in BALB/C nude mice.
Eighty-one (81) female BALB/C nude mice, were equally divided into 9 groups, which were purchased from SINO-BRITSH SIPPR/BK LAB. ANIMAL LTD., CO, with Certificate No.: SOCK (Shanghai) 2008-0016.
The appropriate amount of each test compound was weighed, and successively added with 9% PEG400+0.5% tween 80+0.5% PVP+90% aqueous solution of 0.5% CMC.
After an overnight fasting, 81 female BALB/C nude mice were equally divided into 9 groups; and administered the test compounds intragastrically at an administration volume of 0.2 mL/10 g.
81 female Balb/C nude mice were administered the test compounds intragastrically after an overnight fasting. Blood (0.1 mL) was taken (3 animals at each time point) at 0.5, 1.0, 2.0, 4.0, 6.0, 8.0, 11.0, and 24.0 h after administration. The samples were stored in heparinized test tubes, and centrifuged for 10 minutes at 3,500 rpm to separate the blood plasma. The plasma samples were stored at −20° C.
The concentration of the prototype drug in the plasma and in the solution to be administered was determined by liquid chromatography tandem mass spectrometry (LC/MS MS).

The target of the next series is T1, ER (estrogen receptor) (Homo sapiens, UniProt P03372).
T1 construct: MCF-7/ERE-luciferase monoclonal cells were selected by transfection of MCF-7; host or cells: MCF-7/ERE-luciferase (only the ERE-luciferase reporter was transfected)
T1 sequence (P03372 1-595): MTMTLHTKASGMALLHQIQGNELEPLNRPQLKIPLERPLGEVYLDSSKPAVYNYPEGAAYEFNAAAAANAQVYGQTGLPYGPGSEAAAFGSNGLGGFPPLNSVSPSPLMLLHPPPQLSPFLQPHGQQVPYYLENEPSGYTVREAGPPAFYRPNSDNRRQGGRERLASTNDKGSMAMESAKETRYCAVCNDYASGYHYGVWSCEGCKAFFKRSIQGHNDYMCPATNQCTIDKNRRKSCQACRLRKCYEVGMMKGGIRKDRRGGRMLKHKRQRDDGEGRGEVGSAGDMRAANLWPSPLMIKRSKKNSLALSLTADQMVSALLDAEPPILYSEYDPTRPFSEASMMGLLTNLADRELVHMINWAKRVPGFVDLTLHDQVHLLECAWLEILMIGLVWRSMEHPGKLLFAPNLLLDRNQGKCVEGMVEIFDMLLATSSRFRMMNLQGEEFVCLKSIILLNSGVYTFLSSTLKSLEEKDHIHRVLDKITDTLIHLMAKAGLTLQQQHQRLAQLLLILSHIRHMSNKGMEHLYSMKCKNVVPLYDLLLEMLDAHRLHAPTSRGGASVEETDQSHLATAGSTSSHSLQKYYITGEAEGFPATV
Briefly: Inhibition of the binding of estrogen (E) to estrogen receptor (ER), MCF-7/ERE-luciferase reporter cells. The conditions noted are these: MCF-7/ERE-luciferase cells, 0.1 nM estradiol, 24 hours, chemiluminescence; read-out: IC50 value of inhibition effect on the binding of E to ER. In kind it is cell-based. An outline of the steps:
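MCF-7 cells stably carrying an ERE-luciferase reporter, grown in charcoal-stripped FBS medium, were treated with compound plus 0.1 nM estradiol for 24 h at 37 °C. Luciferase chemiluminescence was then read and plotted against log compound concentration to derive IC50.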
(In general: Reporter assays use an easily measured gene product as a stand-in for the process of interest.)

As for `CCc1ccc(N2C(C)Cc3cc(-c4cnn(C)c4)ccc3C2c2ccc(/C=C/C(=O)O)cc2)cc1` [Example 1, (E)-3-(4-((1R,3R/1S,3S)-2-(4-Ethylphenyl)-3-methyl-6-(1-methyl-1H-pyrazol-4-yl)-1,2,3,4-tetrahydroisoquinolin-1-yl)phenyl)acrylic acid], in series [1], the Vd/F is 0.865 L/kg, the AUC amounted to 14400 ng·h/mL, the CL/F stood at 3.48 mL/min/kg and the half-life is 172 min. Further, in series [1], the MRT was found to be 4.53 h and the Cmax is 3440 ng/mL. For the same compound, at ER (estrogen receptor), the IC50 turned out to be 2.11 nM.

As for `CCn1cc(-c2ccc3c(c2)CC(C)N(c2ccc(C(C)C)cc2)C3c2ccc(/C=C/C(=O)O)cc2)cn1` [Example 7, (E)-3-(4-((1R,3R/1S,3S)-6-(1-Ethyl-1H-pyrazol-4-yl)-2-(4-isopropylphenyl)-3-methyl-1,2,3,4-tetrahydroisoquinolin-1-yl)phenyl)acrylic acid], in series [1], the Vd/F was found to be 1.23 L/kg, the exposure (AUC) came out at 12900 ng·h/mL, the CL/F is 3.88 mL/min/kg and the half-life is 220 min. Moreover, in series [1], the MRT was determined as 6.8 h and the maximum concentration (Cmax) was 1280 ng/mL. For the same compound, at ER (estrogen receptor), the IC50 came to 1.79 nM.

Take `CCn1cc(-c2ccc3c(c2)C[C@@H](C)N(c2ccc(C(C)C)cc2)[C@@H]3c2ccc(/C=C/C(=O)O)cc2)cn1` [Example 8, (E)-3-(4-((1R,3R)-6-(1-Ethyl-1H-pyrazol-4-yl)-2-(4-isopropylphenyl)-3-methyl-1,2,3,4-tetrahydroisoquinolin-1-yl)phenyl)acrylic acid]: in series [1], the Vd/F is 1.51 L/kg, the AUC worked out at 9380 ng·h/mL, the CL/F stood at 5.33 mL/min/kg and the half-life was 196 min. Besides, in series [1], the MRT worked out at 5.26 h and the Cmax was 1620 ng/mL. Besides, the IC50 on ER (estrogen receptor) was determined as 0.39 nM.

With `C[C@@H]1Cc2cc(-c3cnn(C)c3)ccc2[C@@H](c2ccc(/C=C/C(=O)O)cc2)N1c1ccc(C2CC2)cc1` [Example 11, (E)-3-(4-((1R,3R)-2-(4-Cyclopropylphenyl)-3-methyl-6-(1-methyl-1H-pyrazol-4-yl)-1,2,3,4-tetrahydroisoquinolin-1-yl)phenyl)acrylic acid], in series [1], the Vd/F was determined as 1.48 L/kg, the AUC turned out to be 16400 ng·h/mL, the CL/F came out at 3.06 mL/min/kg and the half-life was 335 min. In series [1], the MRT stood at 7.9 h and the Cmax was 1890 ng/mL. The IC50 on ER (estrogen receptor) worked out at 0.32 nM.

With `CCn1cc(-c2ccc3c(c2)C[C@@H](C)N(c2ccc(C4CC4)cc2)[C@@H]3c2ccc(/C=C/C(=O)O)cc2)cn1` [Example 14, (E)-3-(4-((1R,3R)-2-(4-Cyclopropylphenyl)-6-(1-ethyl-1H-pyrazol-4-yl)-3-methyl-1,2,3,4-tetrahydroisoquinolin-1-yl)phenyl)acrylic acid], in series [1], the Vd/F amounted to 1.26 L/kg, the AUC came out at 14800 ng·h/mL, the CL/F was determined as 3.39 mL/min/kg and the half-life was 257 min. Moreover, in series [1], the MRT is 6.73 h and the Cmax was found to be 2480 ng/mL. The IC50 at ER (estrogen receptor) was found to be 0.25 nM.

As to `CC(C)c1ccc(N2[C@H](c3ccc(/C=C/C(=O)O)cc3)c3ccc(-c4cnn(C)c4)cc3C[C@H]2C)cc1` [Example 42, (E)-3-(4-((1R,3R)-2-(4-Isopropylphenyl)-3-methyl-6-(1-methyl-1H-pyrazol-4-yl)-1,2,3,4-tetrahydroisoquinolin-1-yl)phenyl)acrylic acid], in series [1], the Vd/F came to 3.1 L/kg, the AUC came to 11200 ng·h/mL, the CL/F worked out at 4.46 mL/min/kg and the half-life is 482 min. In series [1], the MRT came out at 9.21 h and the Cmax amounted to 1270 ng/mL. For the same compound, at ER (estrogen receptor), the IC50 was 0.52 nM.
